In patent US6852715B1, “Indolocarbazole alkaloids from a marine actinomycete” (Instituto Biomar S.A., priority 1909, dated 2005):
pIC50: −log10 of the molar value.

Experiments:
Type in all cases: cell-based
[1] = tested on: HT-29 (monolayer culture of a human colon carcinoma); experiment: In vitro antitumor activity, HT-29 cell growth (Crystal Violet); details: HT-29 cells, three days of incubation at 37° C., Crystal Violet staining
Procedure: (§1) The antitumor activities of IB-97224 and IB-97225 have been determined in vitro in cell cultures of mouse leukemia P-388D1, human lung carcinoma A-549, human colon carcinoma HT-29 and human melanoma SK-MEL-28. The procedure was carried out using the methodology described by Bergeron, et al. (1984), and by Schroeder, et al. (1981).
(§2) Biological activity: The antitumor cells employed have been P-388D1 (suspension culture of a lymphoid neoplasm from DBA/2 mouse), A-549 (monolayer culture of a human macrocytic lung carcinoma), HT-29 (monolayer culture of a human colon carcinoma), and SK-MEL-28 (monolayer culture of a human melanoma). P-388D1 cells were seeded into 16 mm wells at 1×10^4 cells per well in 1 ml aliquots of MEM 5FCS containing the indicated concentration of drug. A separate set of cultures without drug was seeded as control of growth to ensure that cells remained in exponential phase of growth. All determinations were carried out duplicated. After three days of incubation at 37° C. in 10% CO2 atmosphere with 98% humidity, the IC50 was calculated by comparing the growth in wells with drug with the growth in control wells without the drug. […] The IC50 was calculated by comparing the growth in wells with drug with the growth in control wells without the drug.

[2] = tested on: A-549 (monolayer culture of a human macrocytic lung carcinoma); experiment: In vitro antitumor activity, A-549 cell growth (Crystal Violet); details: A-549 cells, three days of incubation at 37° C., Crystal Violet staining
Procedure: as §1, §2

[3] = tested on: SK-MEL-28 (monolayer culture of a human melanoma); experiment: In vitro antitumor activity, SK-MEL-28 cell growth (Crystal Violet); details: SK-MEL-28 cells, three days of incubation at 37° C., Crystal Violet staining
Procedure: as §1, §2

[4] = tested on: P-388D1 (suspension culture of a lymphoid neoplasm from DBA/2 mouse); experiment: In vitro antitumor activity, P-388D1 cell growth; details: P388D1 cells, three days of incubation at 37° C., growth vs control wells without drug
Procedure: as §1, §2

SMILES	pIC50 [1]	pIC50 [2]	pIC50 [3]	pIC50 [4]
CO[C@H]1[C@@H](N(C)C)[C@H](O)C2OC1(C)n1c3ccccc3c3c4c(c5c6ccccc6n2c5c31)C(=O)NC4 (some centres unmarked) [IB-97224, 4′N-methyl-5′-hydroxystaurosporine]	8.40	8.70	8.40	7.40
CN[C@H]1[C@H](O)[C@@H]2O[C@](C)([C@H]1OC)n1c3ccccc3c3c4c(c5c6ccccc6n2c5c31)C(=O)NC4 [IB-97225, 5′-hydroxystaurosporine]	8.40	8.70	8.70	7.70
